{"source": "patent US20220324796A1", "about": "“ANTIBIOTIC COMPOUNDS” (The General Hospital Corporation, priority 2019, published 2022)", "key": {"[1]": {"test_system": "MRSA BF2", "assay": "MIC assay (micro-dilution)", "type": "cell-based, S. aureus", "details": "Staphylococcus aureus", "description": "(§1) Minimal inhibitory concentration (MIC) assay. The MICs of antibiotics were determined by the standard micro-dilution method recommended by the Clinical and Laboratory Standards Institute. MIC assays were conducted in biological triplicate.\nAntimicrobial activity of each analog was tested against four MRSA strains (MW2, BF1, BF2, and BF3), Pseudomonas aeruginosa (PA14), Klebsiella pneumonia (WGLW2), and Acinetobacter baumannii (ATCC 17978)."}, "[2]": {"test_system": "daptomycin-intermediate or-resistant Enterococcal strains", "assay": "MIC assay, Enterococcal strains", "type": "cell-based", "details": "Enterococcus; range over several daptomycin-intermediate or -resistant Enterococcal strains", "description": "Bacterial strains and growth conditions. S. aureus strains were grown in tryptic soy broth (TSB) (BD, Franklin Lakes, N.J., USA). E. faecium and E. faecalis strains were grown in brain-heart infusion (BHI) broth (BD, Franklin Lakes, N.J., USA), and four Gram-negative species, Klebsiella pneumoniae, Acinetobacter baumannii, Pseudomonas aeruginosa, and Enterobacter aerogenes were grown in Luria Bertani (LB) broth (BD, Franklin Lakes, N.J., USA). All bacteria were grown at 37° C. at 200 r.p.m.\nas §1"}, "[3]": {"test_system": "exponential phase MRSA MW2 cells", "assay": "Cell lysis by optical density", "type": "cell-based, S. aureus", "details": "10 μg/mL, 4 h"}, "[4]": {"test_system": "MRSA MW2 biofilm persisters", "assay": "Biofilm persister killing assay", "type": "cell-based, S. aureus", "description": "Biofilm persister killing assay. An overnight culture of S. aureus MW2 cells was diluted 1:200 with TSB supplemented with 0.2% glucose and 3% NaCl. A 13 mm diameter Millipore mixed cellulose ester membrane (EMD Millipore GSWP01300) was placed at the bottom of each well of a 12-well assay plate (Falcon 353043). […] was added to each well and statically incubated at 37° C. for 24 h. The membranes were washed 3-times with PBS and transferred to a fresh 12-well plate, 1 mL PBS containing the desired concentration of antibiotics was added to each well, and then the plate was statically incubated at 37° C. for 24 h, The membranes were washed 3 times with PBS, placed in 2-mL microcentrifuge tubes containing 1 mL PBS, and sonicated in an ultrasonic bath (Fisher Scientific FS 30) for 10 min. The sonicated samples were serially diluted, spot-plated on TSA to enumerate the number of live cells. The experiment was conducted in biological triplicate."}, "[5]": {"assay": "Giant unilamellar vesicles (GUVs) assay, bacterial mimetic", "description": "(§2) Giant unilamellar vesicles (GUVs) assay. GUVs were prepared by slightly modifying the electroformation method described previously. 1,2-dioleoyl-sn-glycero-3-phosphocholine (DOPC), 1,2-dioleoyl-sn-glycero-3-phospho-(1′-rac-glycerol) (DOPG), 1-palmitoyl-2-oleoyl-glycero-3-phosphocholine (POPC), cholesterol (ovine wool) and 1,2-dioleoyl-sn-glycero-3-phosphoethanolamine-N-(lissamine rhodamine B sulfonyl) (18:1 Liss Rhod PE) were purchased from Avanti Polar Lipids (Alabaster, Ala., USA). 4 mM lipid mixtures consisting of DOPC/DOPG/18:1 Liss Rhod PE (7:3:0.005) and POPC/cholesterol/18:1 Liss Rhod PE (7:3:0.005) were dissolved in chloroform respectively. Same procedure was used to prepare both kinds of GUVs. Indium tin oxide (ITO)-coated slides (50×75×1.1 mm, Delta Technologies, Loveland, Colo., USA) were coated with […] of the lipid mixture and dried in a vacuum chamber for 2 h to remove chloroform. An electroformation chamber was made by placing a 2 mm thick Teflon spacer between the two lipid-coated ITO slides. […] After adding 1 μl of compound solution to a well (final compound concentration: 1× MIC), the GUVs were observed and imaged with an optical microscope equipped with fluorescence contrast and a digital camera (63x objectives, Axio Observer. A1 & AxioCam MRm, Zeiss, Germany). […]"}, "[6]": {"assay": "Giant unilamellar vesicles (GUVs) assay, mammalian mimetic", "description": "as §2"}, "[7]": {"test_system": "MRSA MW2 cells", "assay": "Bacterial membrane permeability assay (SYTOX Green)", "type": "cell-based, S. aureus", "description": "Bacterial membrane permeability assay. Exponential-phase or stationary-phase S. aureus MW2 cells prepared as described above under Killing kinetics assay and Persister killing assay, respectively, were washed 3 times with the same volume of PBS. The washed cells were adjusted to OD600=0.4 with PBS. SYTOX Green (Molecular Probes, Waltham, Mass., USA) was added to 10 mL of the diluted bacterial suspension to a final concentration of 5 μM and incubated for 30 min at room temperature in the dark. 50 μl of the bacterial/SYTOX Green suspension was mixed with 50 μl of phosphate buffered saline (PBS) containing twice the desired concentrations of compounds in black, clear-bottom, 96-well plates (Corning no. 3904). Fluorescence was measured at room temperature using a spectrophotometer (SpectraMax M2, Molecular Devices) with excitation and emission wavelengths of 485 nm and 525 nm, respectively. All experiments were conducted in biological triplicate."}, "[8]": {"test_system": "MRSA strain MW2 persisters", "assay": "Deep-seated mouse thigh infection model, bacterial load", "type": "in vivo", "details": "30 mg/kg each agent, every 12 h for 3 days from 24 h post-infection", "description": "Deep-seated mouse thigh infection model. […] Mice were euthanized at 96 h post-infection. […] Thighs were homogenized in PBS, serially diluted with PBS, and spot-plated on TSA plates."}, "[9]": {"test_system": "human erythrocytes", "details": "1 h"}, "[10]": {"test_system": "Gram-positive bacteria including S. aureus, Bacilius subtilis, and Enterococcus faecium", "details": "previously described; cited from earlier work"}, "[11]": {"test_system": "Gram-negative bacteria including Escherichia coli and Shigella dysenteriae", "details": "previously described; cited from earlier work"}}}
{"molecule": "Oc1c(Cl)cc(Cl)cc1Sc1cc(Cl)cc(Cl)c1O", "note": "[bithionol, 6,6′-thio-bis-(2,4-dichlorophenol)]", "values": [{"measurement": "MIC", "setting": "[1]", "value": 0.5, "unit": "µg/mL"}, {"measurement": "MIC", "setting": "[2]", "value": "0.5 to 2", "unit": "µg/mL"}, {"measurement": "optical density of S. aureus cells (bacteriolytic activity)", "setting": "[3]", "value": "time-dependent decrease in optical density"}, {"measurement": "time to complete eradication of biofilm persisters", "setting": "[4]; 32 μg/mL (32× MIC)", "value": "≤ 24", "unit": "h"}, {"measurement": "concentration completely eradicating biofilm persisters", "setting": "[4]; 24 h treatment", "value": 32, "unit": "µg/mL"}, {"measurement": "effect on DOPC/DOPG GUVs", "setting": "[5]; 1 μg/mL", "value": "Lipid aggregates formed on the surfaces of the GUVs"}, {"measurement": "effect on DOPC/DOPG GUVs", "setting": "[5]; 10 μg/mL", "value": "the GUVs burst"}, {"measurement": "effect on 7POPC/3 cholesterol GUVs", "setting": "[6]", "value": "did not cause observable effects"}, {"measurement": "SYTOX Green membrane permeabilization", "setting": "[7]; MRSA MW2 exponential-phase cells and/or persisters, in words", "value": "dose-dependent membrane permeability"}, {"measurement": "concentration at which SYTOX Green fluorescence intensity was maximized", "setting": "[7]; decreased above 8 μg/mL", "value": 4, "unit": "µg/mL"}, {"measurement": "effect on MRSA CFUs in the mouse thigh", "setting": "[8]", "value": "no effect"}, {"measurement": "HC50", "setting": "[9]", "value": "> 64", "unit": "µg/mL"}, {"measurement": "minimal inhibitory concentration (MIC)", "setting": "[10]", "value": "8 to 15", "unit": "µg/mL"}, {"measurement": "MIC", "setting": "[11]", "value": "> 100", "unit": "µg/mL"}]}
